As usually defined, the IC50 is the concentration that inhibits the measured activity by half. Read a low IC50 as inhibition by little substance. What is called Ki is the equilibrium dissociation constant of an inhibitor or competing ligand from its target. The low end stands for tighter binding, the high end for weaker binding.

Molecules are shown by their SMILES. Counter-ions that a name gives are not always drawn.

Seven molecules from patent US6579868B1, “Purine derivatives and adenosine A2 receptor antagonists serving as preventives/remedies for diabetes” (Eisai Co., Ltd., priority 1998, dated 2003) can be followed below.

In test [1] the target is T1, Human adenosine A2b receptor (Homo sapiens, UniProt P29275).
T1 construct: expressed in transfected cells; host or cells: CHOK1 cells
T1 sequence (P29275 1-332): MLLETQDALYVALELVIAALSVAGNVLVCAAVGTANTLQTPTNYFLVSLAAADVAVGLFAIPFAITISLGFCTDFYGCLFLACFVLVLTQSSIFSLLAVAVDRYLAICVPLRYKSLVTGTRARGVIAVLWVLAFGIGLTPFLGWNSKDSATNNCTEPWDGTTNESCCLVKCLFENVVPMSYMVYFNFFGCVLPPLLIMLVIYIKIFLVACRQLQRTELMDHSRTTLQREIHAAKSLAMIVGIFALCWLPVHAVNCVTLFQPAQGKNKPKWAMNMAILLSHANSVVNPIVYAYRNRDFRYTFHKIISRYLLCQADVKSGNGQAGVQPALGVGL
Briefly: Suppression of NECA-stimulated cAMP production in adenosine A2b receptor expressed CHOK1 cells. The class given is cell-based. The settings on record: NECA 30 nM. The method, then:
Human adenosine A2b receptor cDNA was over-expressed in CHOK1 cells. […] Affinity of the test compound to the A2b receptor was evaluated in which the index used was the degree of suppression of the amount of cAMP produced by stimulation of NECA (30 nM) which was an adenosine agonist in the presence of the test compound. Thus, after washing with 2 ml/well of an incubation buffer (Krebs solution; pH7.4) twice, a pre-incubation was carried out at 0.5 ml/well for 30 minutes. […] After 15 minutes, the reaction was stopped by substituting 0.1N HCl (300 μl/well) for the reaction solution. Measurement of cAMP was carried out using an Amersham cAMP EIA Kit.
Calculation of the suppression rate of the test compound to the NECA-stimulated cAMP production was done by the following expression.
Inhibition Rate (%)=[1−{(cAMP amount in the presence of NECA and test compound-cAMP amount in the case of incubation buffer only)/(cAMP amount stimulated only by NECA-cAMP amount in the case of incubation buffer only)}]×100.
IC50 […]was calculated from the above.
On the technique in general: cAMP levels reflect the balance of adenylyl cyclase and phosphodiesterase activity.

The test system of test [2] is spontaneous diabetic mice (KK-A^y/Ta Jcl). The test can be described thus: Action to hyperglycemia of spontaneous diabetic mice (KK-A^y/Ta Jcl), single oral administration. It counts as in vivo, mouse. As for the experimental part:
Animals: Five male KK-A^y/Ta Jcl mice for each group (purchased from Nippon Clair)
Preparation and Administration of Test Compound: A test compound in a dose as shown in Table 2 was suspended in a 0.5% aqueous solution of methyl cellulose and was orally administered in a dose of 10 ml/kg.
Collection of Blood Samples and Determination of Blood Sugar: Blood was collected from tail vein immediately before administration of the test compound and also five hours after the administration and blood sugar was determined.
Method: Tail vein of a mouse was injured by a razor without an anesthetization to bleed slightly. The blood (15 μl) was collected and immediately mixed with 135 μl of a 0.6 M perchloric acid. Glucose in the supernatant obtained by a centrifugal separation (at 1500 g for 10 minutes at 4° C. using a cooling centrifuge GS-6KR of Beckmann) was determined by a Glucose CII Test Wako (Wako Pure Chemicals).
The result is shown in terms of “(% ratio of the blood sugar after 5 hours from the administration to the blood sugar before the administration)±(standard error)”. The data were subjected to a one-way layout analysis of variance and then subjected to a multiple comparison of a Dunnett type. The case where p<0.05 was judged to be that a significant difference was available.
Animals: Five male KK-A^y/Ta Jcl mice for each group (introduced from Nippon Clair)
Preparation and Administration of Test Compound: A test compound in a dose shown in Table 6 was suspended in a 0.5% aqueous solution of methyl cellulose and was orally administered in a dose of 10 ml/kg.
Method: Tail vein of mouse was injured by a razor without an anesthetization to bleed slightly. The blood (15 μl) was collected and immediately mixed with 135 μl of a 0.6 M perchloric acid. Glucose in the supernatant obtained by a centrifugal separation (at 1500 g for 10 minutes at 4° C. using a cooling centrifuge GS-6KR of Beckmann) was determined by a Glucose CII Test Wako (Wako Pure Chemicals).
The result is shown in terms of “(% ratio of the blood sugar after 5 hours from the administration to the blood sugar before the administration)±(standard error)”. The data were subjected to a one-way layout analysis of variance and then subjected to a multiple comparison of Dunnett type. The case where p<0.05 was judged that a significant difference was available.

Test [3] can be described thus: Glucose tolerance test (impaired glucose tolerance). The settings on record: in vivo.
Another test addresses T2, adenosine A2a receptor (Homo sapiens, UniProt P29274).
T2 construct: purchased Receptor Biology, Inc
The test can be described thus: Adenosine A2a receptor binding experiment (3H-CGS21680). The settings on record: A2a receptor membrane specimen.

For test [4], the target named is T3, Human adenosine A1 receptor (Homo sapiens, UniProt P30542).
T3 construct: expressed in transfected cells; host or cells: CHOK1 cells (membrane specimen)
T3 sequence (P30542 1-326): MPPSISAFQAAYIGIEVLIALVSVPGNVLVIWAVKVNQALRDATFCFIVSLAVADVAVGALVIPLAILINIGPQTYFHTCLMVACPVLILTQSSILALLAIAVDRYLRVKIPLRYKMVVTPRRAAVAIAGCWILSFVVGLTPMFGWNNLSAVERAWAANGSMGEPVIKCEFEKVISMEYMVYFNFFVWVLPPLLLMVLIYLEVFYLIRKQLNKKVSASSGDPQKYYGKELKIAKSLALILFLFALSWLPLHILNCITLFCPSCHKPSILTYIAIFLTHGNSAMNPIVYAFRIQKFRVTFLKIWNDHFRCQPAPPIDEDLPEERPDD
The test can be described thus: Adenosine A1 receptor binding experiment (3H-CCPA). The settings on record: human A1 receptor expressed in CHOK1 membranes. The method, then: Human adenosine A1 receptor cDNA was subjected to an over-expression in CHOK1 cells and its membrane specimen was suspended in an incubation buffer (20 mM HEPES, 10 mM MgCl2 and 100 mM NaCl; pH 7.4) to make the concentration 66.7 μg/ml. To 0.45 ml of this membrane specimen were added 0.025 ml of tritium-labeled chlorocyclopentyl adenosine (60 nM ^3H-CCPA; 30 Ci/mmol) and 0.025 ml of the compound to be tested. The solution of the compound to be tested was prepared in such a manner that, firstly, the compound was dissolved in DMSO to make 20 mM concentration and then successively diluted each 10-fold using an incubation buffer. The mixture was allowed to stand at 30° C. for 120 minutes, subjected to a quick suction on a glass fiber filter (GF/B; manufactured by Whatman) and immediately washed with 5 ml of ice-cooled 50mM Tris-HCl buffer twice. After that, the glass fiber filter was transferred to a vial bottle, a scintillator was added and the radioactivity on the filter was measured by a liquid scintillation counter. Calculation of the inhibition rate of the test compound to the receptor bond (^3H-CCPA) was carried out by the following expression and, based upon that, IC50 was calculated.
Inhibition Rate (%)=[1−{(Binding amount in the presence of drug-Non-specific binding amount)/(Total binding amount-Non-specific binding amount)}]×100
Total binding amount is a ^3H-CCPA binding radioactivity in the absence of the test compound.
Non-specific binding amount is a ^3H-CCPA binding radioactivity in the presence of 100 μM of RPIA.
Binding amount in the presence of drug is a ^3H-CCPA binding radioactivity in the presence of the test compound of various concentrations.
The inhibition constant (Ki value) in Table was calculated from Cheng-Prusoff's expression.

T2 sequence (P29274 whole entry): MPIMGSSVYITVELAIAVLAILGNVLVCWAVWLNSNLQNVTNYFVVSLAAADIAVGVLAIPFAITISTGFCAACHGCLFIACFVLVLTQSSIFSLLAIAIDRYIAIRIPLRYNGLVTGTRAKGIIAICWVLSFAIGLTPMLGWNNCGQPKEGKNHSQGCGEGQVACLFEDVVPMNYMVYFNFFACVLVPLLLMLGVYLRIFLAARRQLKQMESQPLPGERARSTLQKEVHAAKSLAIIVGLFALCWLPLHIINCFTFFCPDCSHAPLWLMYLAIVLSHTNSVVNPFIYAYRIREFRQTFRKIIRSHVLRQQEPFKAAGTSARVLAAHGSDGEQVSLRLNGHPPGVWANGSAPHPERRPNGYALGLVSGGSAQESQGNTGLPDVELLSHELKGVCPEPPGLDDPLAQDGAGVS
Method for adenosine A2a receptor: A membrane specimen prepared by an over-expression of adenosine A2a receptor was purchased from Receptor Biology, Inc. and adenosine A2a receptor binding experiments were carried out using that. […] To 0.45 ml of this membrane specimen were added 0.025 ml of tritium-labeled ^3H-CGS21680 (500 nM; 30 Ci/mmol) and 0.025 ml of the test compound. The solution of the test compound was prepared in such a manner that, firstly, the compound was dissolved in DMSO to make 20 mM concentration and then successively diluted each 10-fold using an incubation buffer. […] After that, the glass fiber filter was transferred to a vial bottle, a scintillator was added and the radioactivity on the filter was measured by a liquid scintillation counter. Calculation of the inhibition rate of the test compound to the receptor bond (^3H-CGS21680) of A2a was carried out by the following expression and, based upon that, IC50 was calculated. […]
Total binding amount is a ^3H-CGS21680 binding radioactivity in the absence of the test compound.
Non-specific binding amount is a ^3H-CGS21680 binding radioactivity in the presence of 100 μM of RPIA.
Binding amount in the presence of drug is a ^3H-CGS21680 binding radioactivity in the presence of the test compound of various concentrations.

In turn, `CCCn1c(=O)c2c(nc(/C=C/c3ccc(OC)c(OC)c3)n2C)n(CCC)c1=O` [KF17837] registered an IC50 in test [1] of 1360 nM. The same measure, in the same setting: to `Cn1c(-c2cccc(F)c2)nc2c(N)nc(C#CC3(O)CCCC3)nc21` [Compound B] belongs 70 nM. In the case of `Fc1cccc(-c2nc3cccnc3n2-c2ccncc2)c1` [Compound C, 2-(3-Fluorophenyl)-(4-pyridyl)-3H-imidazo[4,5-b]pyridine Hydrochloride, reference compound], the “% ratio of the blood sugar after 5 hours from the administration to the blood sugar before the administration ± standard error” value in test [2] (Table 6-2, 30 mg/kg oral, solvent group 69.8 ± 2.3) came to 48.5 ± 3.4%. In test [1], the half-maximal inhibitory concentration (IC50) was determined as 100 nM. On to `O=C(/C=C/c1c(-c2ccccc2)nn2ccccc12)N1CCCC[C@@H]1CCO` [FK453, reference compound], for which, in test [2] (even at the dose of 100 mg/kg), the “hypoglycemic action in the present diabetic models (in words)” value is recorded as “no hypoglycemic action was noted”. The “glucose tolerance improving action in glucose tolerance test (in words)” value in test [3] is listed as “no glucose tolerance improving action was noted”. Take `CCn1c(-c2cccc(F)c2)nc2c(N)nc(C#CC3(O)CCC3)nc21` [drawing 259]: the inhibition constant (Ki) on adenosine A2a receptor amounted to 2 nM; in test [4], 24 nM. As for `CCn1c(-c2cccc(F)c2)nc2c(N)nc(C#CC3(O)CCC3)nc21` [Compound A], the “% ratio of the blood sugar after 5 hours from the administration to the blood sugar before the administration ± standard error” value in test [2] (Table 6-1, 10 mg/kg oral, administered in a form of sulfate, solvent group 72.4 ± 4.4) amounted to 47.8 ± 4.8%. Also, the IC50 in test [1] amounted to 28 nM. Consider `Fc1cccc(-c2nc3cccnc3n2-c2ccncc2)c1` [drawing 261], for which the figures for the Ki (at adenosine A2a receptor; in test [4]) were 750 nM and 54 nM, respectively.
